Test system: scalp
Assay: monadic use test for scalp compatibility and mildness
Design: species or system consumers
Conditions: in vivo
Protocol: The above compositions were tested in a monadic use test for scalp compatibility and mildness. Both compositions were used to dye hair of 30 consumers each having shoulder length hair. The composition was mixed with a composition comprising 6% hydrogen peroxide at a weight ratio of 1 to 1 and applied onto hair and processed for 30 min at a temperature of 40° C. and rinsed off. It was observed that both composition colour hair in the same way to the same colour direction. The following observations were made on scalp irritation.

For O=C(CCc1ccc(O)cc1)Nc1ccccc1C(=O)O [hydroxyphenyl propamidobenzoic acid, Hydroxyphenyl propamidobenzoic acid], the “mildness and scalp compatibility of hair dyeing composition (conclusion in words)” value was “improved mildness of hair dyeing composition and improved scalp compatibility”.
